Test results as given in ChEMBL document CHEMBL1143708, “5-alkynyl analogs of arabinouridine and 2'-deoxyuridine: cytostatic activity against herpes simplex virus and varicella-zoster thymidine kinase gene-transfected cells” (J Med Chem, 2007).
Values after ≈ are worked out from the molar mass of the structure shown.

Each molecule was assayed on Vaccinia virus (assay: Antiviral activity against Vaccinia virus in E6SM cells assessed as reduction of virus-induced cytopathogenicity). Conditions: Orthopoxvirus vaccinia.
Assay type: functional, organism-based

Row | Compound | EC50
1 | C#Cc1cn([C@H]2C[C@H](O)[C@@H](CO)O2)c(=O)[nH]c1=O | 0.1 µg/mL (≈ 0.396 µM)
2 | C[Si](C)(C)C#Cc1cn([C@H]2C[C@H](O)[C@@H](CO)O2)c(=O)[nH]c1=O | 0.2 µg/mL (≈ 0.617 µM)
3 | CC(=O)OC[C@H]1O[C@@H](n2cc(C#CI)c(=O)[nH]c2=O)[C@@H](OC(C)=O)[C@@H]1OC(C)=O | > 10 µg/mL
4 | O=c1[nH]c(=O)n([C@H]2C[C@H](O)[C@@H](CO)O2)cc1C#CI | 0.2 µg/mL (≈ 0.529 µM)
5 | C[Si](C)(C)C#Cc1cn([C@@H]2O[C@H](CO)[C@@H](O)[C@@H]2O)c(=O)[nH]c1=O | 7 µg/mL (≈ 20.6 µM)
6 | Nc1nc2c(ncn2COCCO)c(=O)[nH]1 [ACYCLOVIR] | > 400 µg/mL
7 | O=c1[nH]c(=O)n([C@H]2C[C@H](O)[C@@H](CO)O2)cc1/C=C/Br [BRIVUDINE] | 0.2 µg/mL (≈ 0.6 µM)
8 | Nc1nc2c(ncn2COC(CO)CO)c(=O)[nH]1 [GANCICLOVIR] | > 100 µg/mL
9 | NC(=O)c1ncn([C@@H]2O[C@H](CO)[C@@H](O)[C@H]2O)n1 [RIBAVIRIN] | 20 µg/mL (≈ 81.9 µM)
